In patent US20240148821A1, “PHARMACEUTICAL USE OF CYCLIC PEPTIDE COMPOUND” (CHUGAI SEIYAKU KABUSHIKI KAISHA, priority 2021, published 2024):
Numbered stars: 1 amine (or outer) side, 2 acyl side, 3 side chain; on linkers, the order of the positions; unused ones are H or OH. Bridge positions count the residues as written; N and C are the ends. Square brackets hold non-standard residues; d marks the D form. Peptide text beside a SMILES is read from it. * marks the point of attachment. hPhe(3-Cl-4-CF3) = N[C@@H](CCc1ccc(C(F)(F)F)c(Cl)c1)C(=O)O; X8 = CC(C)Oc1cc(CC[C@H](N[*:1])C(=O)[*:2])cc(Cl)c1Cl; X6 = O=C([C@H](CCc1ccc2c(c1)OC(F)(F)O2)N[*:1])[*:2]; X1 = O=C([C@H](CCc1ccc(OC(F)F)c(F)c1)N[*:1])[*:2]; NMePhe(4-Cl) = CN[C@@H](Cc1ccc(Cl)cc1)C(=O)O; X30 = O=C([C@H](CCc1ccc(Cl)cc1F)N[*:1])[*:2]; X99 = O=C([C@H](CCc1ccc(F)cc1F)N[*:1])[*:2]; X2 = COc1ccc(CC[C@H](N[*:1])C(=O)[*:2])cn1; NMeGly(cPent) = CN[C@H](C(=O)O)C1CCCC1; NMeCha = CN[C@@H](CC1CCCCC1)C(=O)O; NMeF = CN[C@@H](Cc1ccccc1)C(=O)O; NMeD = CN[C@@H](CC(=O)O)C(=O)O; NMeL = CN[C@@H](CC(C)C)C(=O)O; NMeV = CN[C@H](C(=O)O)C(C)C; d(β3hA) = C[C@@H](N)CC(=O)O; NMeA = CN[C@@H](C)C(=O)O; Piperidide = C1CCN(*)CC1; Ac5c = NC1(C(=O)O)CCCC1; Aze = O=C(O)[C@@H]1CCN1; Sar = CNCC(=O)O

What follows are molecules tested against protein-protein interaction between Kras and SOS1 (biotin-tagged human Kras loaded with GDP, His-tagged human SOS1) (Homo sapiens (Human), UniProt P01116, G12D) (assay: Protein-protein interaction inhibition between Kras and SOS1 (KrasG12D-SOS PPI) using AlphaScreen). Conditions: AlphaScreen; biotin-tagged human Kras loaded with GDP, His-tagged human SOS1; read-out: KRAS G12D-SOS PPI IC50.
Assay type: biochemical
Molecule CC[C@H](C)[C@@H]1NC(=O)[C@H](CC(C)C)N(C)C(=O)C[C@@H](C(=O)N2CCCCC2)N(C)C(=O)[C@H](C2CCCC2)N(C)C(=O)C2(CCCC2)NC(=O)[C@@H]2CCCN2C(=O)[C@H](CCc2ccc3c(c2)OC(F)(F)O3)NC(=O)CN(C)C(=O)[C@H](CC2CCCCC2)N(C)C(=O)[C@@H]2CCN2C(=O)[C@H](C)N(C)C1=O [Compound 2074] ([NMeL]I[NMeA][Aze][NMeCha][Sar][X6]P[Ac5c][NMeGly(cPent)][NMeD]-Piperidide; lactam N-11 (inferred); C-terminus assumed) has an IC50 of 2.7 nM. CC[C@H](C)[C@@H]1NC(=O)[C@H](CC(C)C)N(C)C(=O)C[C@@H](C(=O)N2CCCCC2)N(C)C(=O)[C@H](C2CCCC2)N(C)C(=O)C2(CCCC2)NC(=O)[C@@H]2CCCN2C(=O)[C@H](CCc2ccc(OC(F)F)c(F)c2)NC(=O)CN(C)C(=O)[C@H](CC2CCCCC2)N(C)C(=O)[C@@H]2CCN2C(=O)[C@H](C)N(C)C1=O [Compound 2076] ([NMeL]I[NMeA][Aze][NMeCha][Sar][X1]P[Ac5c][NMeGly(cPent)][NMeD]-Piperidide; lactam N-11 (inferred); C-terminus assumed) was tested, and the IC50 was 2.5 nM. With CC[C@H](C)[C@@H]1NC(=O)[C@H](C)N(C)C(=O)C[C@@H](C(=O)N2CCCCC2)N(C)C(=O)[C@H](C(C)C)N(C)C(=O)C2(CCCC2)NC(=O)[C@@H]2CCCN2C(=O)[C@H](CCc2cc(Cl)c(Cl)c(OC(C)C)c2)NC(=O)CN(C)C(=O)[C@H](CC2CCCCC2)N(C)C(=O)CN(C)C(=O)CN(C)C1=O [Compound 2079] ([NMeA]I[Sar][Sar][NMeCha][Sar][X8]P[Ac5c][NMeV][NMeD]-Piperidide; lactam N-11) the IC50 was 17 nM. In the case of CC[C@H](C)[C@@H]1NC(=O)[C@H](CC(C)C)N(C)C(=O)C[C@@H](C(=O)N2CCCCC2)N(C)C(=O)[C@H](C2CCCC2)N(C)C(=O)C2(CCCC2)NC(=O)[C@@H]2CCCN2C(=O)[C@H](CCc2ccc(OC)nc2)NC(=O)CN(C)C(=O)[C@H](CC2CCCCC2)N(C)C(=O)[C@@H]2CCN2C(=O)[C@H](C)N(C)C1=O [Compound 2084] ([NMeL]I[NMeA][Aze][NMeCha][Sar][X2]P[Ac5c][NMeGly(cPent)][NMeD]-Piperidide; lactam N-11 (inferred); C-terminus assumed), the IC50 is reported as 130 nM. For CC[C@H](C)[C@@H]1NC(=O)[C@H](C)N(C)C(=O)C[C@@H](C)NC(=O)[C@H](CC(C)C)N(C)C(=O)[C@H](Cc2ccccc2)N(C)C(=O)[C@H](CC(C)C)NC(=O)[C@H](CCc2ccc(Cl)cc2F)NC(=O)CN(C)C(=O)[C@H](Cc2ccc(Cl)cc2)N(C)C(=O)CN(C)C(=O)CN(C)C1=O [Compound 2086] (cyclo(I[Sar][Sar][NMePhe(4-Cl)][Sar][X30]L[NMeF][NMeL][d(β3hA)][NMeA])), the IC50 was 100 nM. In the case of CC[C@H](C)[C@@H]1NC(=O)[C@H](C)N(C)C(=O)C[C@@H](C)NC(=O)[C@H](CC(C)C)N(C)C(=O)[C@H](Cc2ccccc2)N(C)C(=O)[C@H](CC(C)C)NC(=O)[C@H](CCc2ccc(C(F)(F)F)c(Cl)c2)NC(=O)CN(C)C(=O)[C@H](Cc2ccc(Cl)cc2)N(C)C(=O)CN(C)C(=O)CN(C)C1=O [Compound 2088] (cyclo(I[Sar][Sar][NMePhe(4-Cl)][Sar][hPhe(3-Cl-4-CF3)]L[NMeF][NMeL][d(β3hA)][NMeA])), the IC50 is reported as 30 nM. CC[C@H](C)[C@@H]1NC(=O)[C@H](C)N(C)C(=O)C[C@@H](C)NC(=O)[C@H](CC(C)C)N(C)C(=O)[C@H](Cc2ccccc2)N(C)C(=O)[C@H](CC(C)C)NC(=O)[C@H](CCc2ccc(F)cc2F)NC(=O)CN(C)C(=O)[C@H](Cc2ccc(Cl)cc2)N(C)C(=O)CN(C)C(=O)CN(C)C1=O [Compound 2089] (cyclo(I[Sar][Sar][NMePhe(4-Cl)][Sar][X99]L[NMeF][NMeL][d(β3hA)][NMeA])) showed an IC50 of 300 nM.
